Test results published in paper PMC3103786 (Journal of medicinal chemistry, 2009).

system: nNOS; assay: In vitro NOS inhibition, hemoglobin capture assay; format: biochemical; conditions: ratio of Ki values, eNOS over nNOS

Compound | eNOS/nNOS
Nc1cccc(CC2CNCC2NCCCO)n1 (racemic) [compound 4, (±)-3-{cis-4'-[(6“-aminopyridin-2”-yl)methyl]pyrrolidin-3'-ylamino}propan-1-ol] | 39
Cc1cc(N)nc(CC2CNCC2NCCNCc2ccc(Cl)cc2)c1 (racemic) [compound 6, (±)-N^1-{cis-4'-[(6“-amino-4”-methylpyridin-2“-yl)methyl]pyrrolidin-3'-yl}-N^2-(4'-chlorobenzyl)ethane-1,2-diamine] | 1002
Cc1cc(N)nc(CC2CNCC2NCCNCc2cccc(Cl)c2)c1 (racemic) [compound 7, (±)-N^1-{trans-4'-[(6“-amino-4”-methylpyridin-2”-yl)methyl]pyrrolidin-3'-yl}-N^2-(3'-chlorobenzyl)ethane-1,2-diamine] | 381
